Values of other authors as cited in patent US20230180818A1, “AEROSOLISED FORMULATION” (NICOVENTURES TRADING LIMITED, priority 2018, published 2023).

Settings: compared to base cyclodextrins such as β-cyclodextrin

In the case of 2-hydroxy-propyl-β-cyclodextrin, the solubility in water is listed as “increased solubility in water”.
